This is an account of results in publication PMC6838683, “Discovery of Human Signaling Systems: Pairing Peptides to G Protein-Coupled Receptors” (Cell, 2019).

Format in all cases: cell-based
Assay [1] deals with T1, GPR1 (Homo sapiens, UniProt P46091).
T1 sequence (P46091 1-355): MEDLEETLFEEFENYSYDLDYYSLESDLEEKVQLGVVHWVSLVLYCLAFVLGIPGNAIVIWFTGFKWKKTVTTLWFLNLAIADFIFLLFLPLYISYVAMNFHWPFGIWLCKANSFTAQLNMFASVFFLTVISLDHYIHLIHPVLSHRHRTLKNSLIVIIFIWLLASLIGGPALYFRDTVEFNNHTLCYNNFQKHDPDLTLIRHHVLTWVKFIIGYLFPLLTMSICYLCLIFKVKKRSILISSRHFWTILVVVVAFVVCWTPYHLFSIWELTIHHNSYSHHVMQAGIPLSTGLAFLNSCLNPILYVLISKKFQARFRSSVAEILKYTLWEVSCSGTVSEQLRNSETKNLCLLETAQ
Description: β-arrestin recruitment (PathHunter). The note with it: receptor GPR1, mean, SEM and n (2-3); for EC50: read-out: b-arrestin recruitment assays (PathHunter) pEC50 (converted). How it is done: PathHunter eXpress Assays (DiscoverX) were performed in 384-well format according to the manufacturer’s recommendations. GPR1 cells were incubated with peptides for 90 min and luminescence measured using an EnSpire 2300 Multimode plate reader (PerkinElmer).
Background: Activated receptors often draw arrestin, which recruitment assays turn into a signal.

Assay [2] addresses T1, GPR1. Kind of assay: β-arrestin recruitment (Tango), validation. The arrangement: host or cells: HTLA cells (HEK293-derived). The note with it: receptor GPR1, mean, SEM and n (2-3); for EC50: read-out: b-arrestin recruitment assays (Tango) pEC50 (converted).
The target in assay [3] is T2, BB3 (Homo sapiens, UniProt P32247).
T2 construct: hIL-2Ra signal peptide (N); expressed in transfected cells
T2 sequence (P32247 2-399 limits assumed): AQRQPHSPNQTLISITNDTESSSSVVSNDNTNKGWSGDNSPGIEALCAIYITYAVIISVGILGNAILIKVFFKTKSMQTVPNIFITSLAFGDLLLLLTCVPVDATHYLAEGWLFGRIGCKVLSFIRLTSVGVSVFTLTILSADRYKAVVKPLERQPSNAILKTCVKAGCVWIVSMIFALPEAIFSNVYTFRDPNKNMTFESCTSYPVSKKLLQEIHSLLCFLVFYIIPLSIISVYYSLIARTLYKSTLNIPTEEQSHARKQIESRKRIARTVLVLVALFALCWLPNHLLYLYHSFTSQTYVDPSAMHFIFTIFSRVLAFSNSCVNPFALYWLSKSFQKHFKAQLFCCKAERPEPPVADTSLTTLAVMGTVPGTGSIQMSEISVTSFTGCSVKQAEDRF
Description: IP1 accumulation (Gq/11), HTRF. The note with it: receptor BB3; mean, SEM and n (2-4); read-out: IP1 accumulation assays pEC50 (converted).

Residues, ends and D or L forms follow the SMILES beside them. No end group written: not given here.

As to `CC(C)C[C@H](NC(=O)[C@H](CCCNC(=N)N)NC(=O)[C@H](CC(=O)O)NC(=O)[C@H](CC(C)C)NC(=O)[C@@H]1CCCN1C(=O)[C@H](CO)NC(=O)CNC(=O)[C@H](Cc1ccccc1)NC(=O)CNC(=O)[C@H](CO)NC(=O)[C@H](Cc1ccccc1)NC(=O)[C@@H](N)CO)C(=O)N[C@@H](CO)C(=O)N[C@@H](C)C(=O)NCC(=O)N[C@@H](CO)C(=O)N[C@H](C(=O)N[C@@H](CC(=O)O)C(=O)N[C@@H](Cc1c[nH]cn1)C(=O)N[C@@H](CCCCN)C(N)=O)C(C)C` [Peptide 141.1] (H-SFSGFGSPLDRLSAGSVDHK-NH2), the EC50 was 14100 nM in assay [1] and 14500 nM in assay [2].

For `CC(C)C[C@H](NC(=O)[C@H](CCCNC(=N)N)NC(=O)[C@H](CC(=O)O)NC(=O)[C@H](CC(C)C)NC(=O)[C@@H]1CCCN1C(=O)[C@H](CO)NC(=O)CNC(=O)[C@H](Cc1ccccc1)NC(=O)CNC(=O)[C@H](CO)NC(=O)[C@H](Cc1ccccc1)NC(=O)[C@H](CO)NC(=O)[C@H](CCCNC(=N)N)NC(=O)[C@@H](N)CCCCN)C(=O)N[C@@H](CO)C(=O)N[C@@H](C)C(=O)NCC(=O)N[C@@H](CO)C(=O)N[C@H](C(=O)N[C@@H](CC(=O)O)C(=O)N[C@@H](Cc1c[nH]cn1)C(=O)N[C@@H](CCCCN)C(=O)NCC(=O)N[C@@H](CCCCN)C(=O)N[C@@H](CCC(N)=O)C(=O)O)C(C)C` [Peptide 141.2] (H-KRSFSGFGSPLDRLSAGSVDHKGKQ-OH), the EC50 in assay [1] was 1170 nM; in assay [2] it was 2630 nM.

On to `CC(C)C[C@H](NC(=O)[C@H](CCCNC(=N)N)NC(=O)[C@H](CC(=O)O)NC(=O)[C@H](CC(C)C)NC(=O)[C@@H]1CCCN1C(=O)[C@H](CO)NC(=O)CNC(=O)[C@H](Cc1ccccc1)NC(=O)CNC(=O)[C@H](CO)NC(=O)[C@H](Cc1ccccc1)NC(=O)[C@H](CO)NC(=O)[C@H](CCCNC(=N)N)NC(=O)[C@@H](N)CCCCN)C(=O)N[C@@H](CO)C(=O)N[C@@H](C)C(=O)NCC(=O)N[C@@H](CO)C(=O)N[C@H](C(=O)N[C@@H](CC(=O)O)C(=O)N[C@@H](Cc1c[nH]cn1)C(=O)N[C@@H](CCCCN)C(=O)NCC(=O)N[C@@H](CCCCN)C(=O)N[C@@H](CCC(N)=O)C(=O)N[C@@H](CCCNC(=N)N)C(=O)N[C@@H](CCCCN)C(=O)N[C@H](C(=O)N[C@H](C(=O)N[C@@H](CC(=O)O)C(=O)N[C@@H](Cc1c[nH]cn1)C(=O)N1CCC[C@H]1C(=O)O)C(C)C)C(C)C)C(C)C` [Peptide 141.3] (H-KRSFSGFGSPLDRLSAGSVDHKGKQRKVVDHP-OH), for which the EC50 was 550 nM in assay [1] and 2630 nM in assay [2].

`CC(C)C[C@H](NC(=O)[C@H](CCCNC(=N)N)NC(=O)[C@H](CC(=O)O)NC(=O)[C@H](CC(C)C)NC(=O)[C@@H]1CCCN1C(=O)[C@H](CO)NC(=O)CNC(=O)[C@H](Cc1ccccc1)NC(=O)CNC(=O)[C@H](CO)NC(=O)[C@H](Cc1ccccc1)NC(=O)[C@@H](N)CO)C(=O)N[C@@H](CO)C(=O)N[C@@H](C)C(=O)NCC(=O)N[C@@H](CO)C(=O)N[C@H](C(=O)N[C@@H](CC(=O)O)C(=O)N[C@@H](Cc1c[nH]cn1)C(=O)N[C@@H](CCCCN)C(=O)NCC(=O)N[C@@H](CCCCN)C(=O)N[C@@H](CCC(N)=O)C(=O)O)C(C)C` [Peptide 141.5] (H-SFSGFGSPLDRLSAGSVDHKGKQ-OH): in assay [1], the “b-arrestin recruitment assays (PathHunter) Emax (fold change)” value amounted to 6.2 fold change and the EC50 was 20900 nM. For the same molecule, in assay [2], the “b-arrestin recruitment assays (Tango) Emax (fold change)” value came out at 13.6 fold change and the EC50 is 16200 nM.

As for `CC(C)C[C@H](NC(=O)[C@H](CCCNC(=N)N)NC(=O)[C@H](CC(=O)O)NC(=O)[C@H](CC(C)C)NC(=O)[C@@H]1CCCN1C(=O)[C@H](CO)NC(=O)CNC(=O)[C@H](Cc1ccccc1)NC(=O)CNC(=O)[C@H](CO)NC(=O)[C@H](Cc1ccccc1)NC(=O)[C@@H](N)CO)C(=O)N[C@@H](CO)C(=O)N[C@@H](C)C(=O)NCC(=O)N[C@@H](CO)C(=O)N[C@H](C(=O)N[C@@H](CC(=O)O)C(=O)N[C@@H](Cc1c[nH]cn1)C(=O)N[C@@H](CCCCN)C(=O)NCC(=O)N[C@@H](CCCCN)C(=O)N[C@@H](CCC(N)=O)C(=O)N[C@@H](CCCNC(=N)N)C(=O)N[C@@H](CCCCN)C(=O)N[C@H](C(=O)N[C@H](C(=O)N[C@@H](CC(=O)O)C(=O)N[C@@H](Cc1c[nH]cn1)C(=O)N1CCC[C@H]1C(=O)O)C(C)C)C(C)C)C(C)C` [Peptide 141.6] (H-SFSGFGSPLDRLSAGSVDHKGKQRKVVDHP-OH), the figures for the EC50 in assay [1] and in assay [2] were 3160 nM and 16600 nM, respectively.

For `CSCC[C@H](NC(=O)[C@H](CCCCN)NC(=O)[C@@H](NC(=O)[C@H](CC(C)C)NC(=O)[C@@H](NC(=O)[C@@H](NC(=O)CNC(=O)CNC(=O)CNC(=O)[C@H](C)NC(=O)[C@@H]1CCCN1C(=O)[C@H](CC(C)C)NC(=O)[C@@H]1CCCN1C(=O)[C@@H](N)C(C)C)[C@@H](C)O)C(C)C)[C@@H](C)O)C(=O)N[C@@H](Cc1ccc(O)cc1)C(=O)N1CCC[C@H]1C(=O)N[C@@H](CCCNC(=N)N)C(=O)O` [Peptide 167.2] (H-VPLPAGGGTVLTKMYPR-OH), the EC50 in assay [3] was 525 nM; in assay [1] it was 2290 nM; in assay [2] it was 3020 nM.

As for `CSCC[C@H](NC(=O)[C@H](Cc1ccc(O)cc1)NC(=O)[C@@H](N)CC(=O)O)C(=O)NCC(=O)N[C@@H](Cc1c[nH]c2ccccc12)C(=O)N[C@@H](CCSC)C(=O)N[C@@H](CC(=O)O)C(=O)N[C@@H](Cc1ccccc1)C(N)=O` [Peptide 194.1], the EC50 in assay [1] was 1.45 nM; in assay [2] it was 8510 nM.

As for `C[C@H](NC(=O)[C@@H](N)CCCCN)C(=O)N1CCC[C@H]1C(=O)N[C@@H](CO)C(N)=O` [Peptide 194.3] (H-KAPS-NH2), the EC50 in assay [1] was 0.049 nM; in assay [2] it was 0.00191 nM.

For the molecule `CC[C@H](C)[C@H](NC(=O)[C@H](CCCNC(=N)N)NC(=O)[C@H](Cc1c[nH]cn1)NC(=O)[C@H](CO)NC(=O)[C@@H]1CCCN1C(=O)[C@H](CC(=O)O)NC(=O)[C@H](CC(C)C)NC(=O)[C@H](CC(N)=O)NC(=O)[C@H](CCC(N)=O)NC(=O)[C@H](CC(C)C)NC(=O)[C@H](CC(N)=O)NC(=O)[C@H](CCCCN)NC(=O)[C@@H](NC(=O)[C@@H](NC(=O)[C@H](CO)NC(=O)[C@H](CCSC)NC(=O)[C@H](CCCNC(=N)N)NC(=O)CNC(=O)[C@H](CO)NC(=O)[C@@H]1CCCN1C(=O)[C@H](C)NC(=O)[C@@H](N)CCCCN)[C@@H](C)CC)C(C)C)C(=O)N[C@@H](CO)C(=O)N[C@@H](CC(=O)O)C(=O)N[C@@H](CCCNC(=N)N)C(=O)N[C@@H](CC(=O)O)C(=O)N[C@@H](Cc1ccc(O)cc1)C(=O)N[C@@H](CCSC)C(=O)NCC(=O)O` [Peptide 194.4] (H-KAPSGRMSIVKNLQNLDPSHRISDRDYMG-OH), the EC50 in assay [1] is 0.224 nM; in assay [2] it was 93.3 nM.

Take `CC[C@H](C)[C@H](NC(=O)[C@H](CCCNC(=N)N)NC(=O)[C@H](Cc1c[nH]cn1)NC(=O)[C@H](CO)NC(=O)[C@@H]1CCCN1C(=O)[C@H](CC(=O)O)NC(=O)[C@H](CC(C)C)NC(=O)[C@H](CC(N)=O)NC(=O)[C@H](CCC(N)=O)NC(=O)[C@H](CC(C)C)NC(=O)[C@H](CC(N)=O)NC(=O)[C@H](CCCCN)NC(=O)[C@@H](NC(=O)[C@@H](NC(=O)[C@H](CO)NC(=O)[C@H](CCSC)NC(=O)[C@H](CCCNC(=N)N)NC(=O)CNC(=O)[C@H](CO)NC(=O)[C@@H]1CCCN1C(=O)[C@H](C)NC(=O)[C@@H](N)CCCCN)[C@@H](C)CC)C(C)C)C(=O)N[C@@H](CO)C(=O)N[C@@H](CC(=O)O)C(=O)N[C@@H](CCCNC(=N)N)C(=O)O` [Peptide 194.5] (H-KAPSGRMSIVKNLQNLDPSHRISDR-OH): the values for the EC50 in assay [1] and in assay [2] were 0.135 nM and 22.9 nM, respectively.

As to “KAPSGRMSIVKNLQNLDPSHRISDRDYMGWMDFGRRSAEEYEYPS [Peptide 194.6]”, in assay [1], the “b-arrestin recruitment assays (PathHunter) Emax (fold change)” value was 4.0 fold change and the EC50 is 28200 nM. Moreover, in assay [2], the “b-arrestin recruitment assays (Tango) Emax (fold change)” value turned out to be 2.0 fold change and the EC50 is 75.9 nM.

Take “KRSFSGFGSPLDRLSAGSVDHKGKQRKVVDHPKRRFGIPMDRI [Peptide 141.4]”: the figures for the EC50 in assay [1] and in assay [2] were 39.8 nM and 10200 nM, respectively.

As for “SFSGFGSPLDRLSAGSVDHKGKQRKVVDHPKRRFGIPMDRI-NH2 [Peptide 141.7]”, the EC50 in assay [1] was 575 nM; in assay [2], 26900 nM.
